Target: T1, murine estrogen receptor-alpha (mERα) (Mus musculus, UniProt P19785)
T1 construct: expressed in transfected cells
T1 sequence (P19785 1-599): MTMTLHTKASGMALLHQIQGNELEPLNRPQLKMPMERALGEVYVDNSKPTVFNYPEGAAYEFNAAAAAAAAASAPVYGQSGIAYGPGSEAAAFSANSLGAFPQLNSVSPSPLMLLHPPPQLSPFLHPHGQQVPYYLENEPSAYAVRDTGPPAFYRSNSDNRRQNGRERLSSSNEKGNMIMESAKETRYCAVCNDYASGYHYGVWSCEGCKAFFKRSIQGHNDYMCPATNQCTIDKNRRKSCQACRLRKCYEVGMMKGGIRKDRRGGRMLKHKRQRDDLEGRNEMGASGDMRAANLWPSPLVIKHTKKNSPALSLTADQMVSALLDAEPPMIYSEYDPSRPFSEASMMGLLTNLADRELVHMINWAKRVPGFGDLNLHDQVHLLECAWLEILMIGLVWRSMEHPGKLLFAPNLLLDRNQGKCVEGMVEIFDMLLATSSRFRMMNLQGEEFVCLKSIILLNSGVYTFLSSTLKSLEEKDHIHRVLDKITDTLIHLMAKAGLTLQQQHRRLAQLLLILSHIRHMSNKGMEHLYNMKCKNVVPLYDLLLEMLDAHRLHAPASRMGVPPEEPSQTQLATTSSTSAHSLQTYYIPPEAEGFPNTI
Test: Etoposide-induced apoptosis in HeLa cells stably transfected with mERα
Format: cell-based, human
Details: 10^−8 M, 1 h; etoposide 5×10^−5 M, 6 hour
Text: CMV promoter alone and CMV promoter-driven cDNA for mERα or mErβ were stably transfected into HeLa cells. […] Cells were trypsinized, pelleted and trypan blue positive cells enumerated.
In this experiment, instead of calvaria cells, human HeLa cells which contain undetectable, if any, estrogen receptor were used. HeLa cells were stably transfected with either a CMV promoter-driven cDNA for the murine estrogen receptor-alpha (mERα) or a CMV promoter-driven cDNA for the murine estrogen receptor-beta (mERβ). […] Cells were trypsinized, pelleted and trypan blue positive cells were enumerated.

C[C@@]12CCC[C@H]1[C@@H]1CCc3cc(O)ccc3[C@H]1CC2 [estratriene-3-ol]
inhibition of etoposide-induced apoptosis in HeLa cells transfected with estrogen receptor α: potently inhibited

From patent US20040224884A1, “Methods of screening for apoptosis-controlling agents for bone anabolic therapies and uses thereof” (priority 1998, published 2004)
